Measured values published in patent publication US20210261642A1, “SOLUBILITY OF GLP-1 PEPTIDE” (Novo Nordisk A/S, priority 2017, published 2021).

Assay: Assay (I): Determination of Solubility (96-well plate, pH 3.0-11.0, organic solvent 0-70% w/w, UV absorption at 280 nm)
Assay type: physicochemical
Conditions: Method 1
Description: Assay (I): Determination of Solubility
96-Well Plate Preparation
96-well plates containing target peptide in a solid form were prepared in one of two ways:
Method 1 (evaporation): Addition of 100 μl stock solution of said peptide at a concentration of 4-6 mg/ml to each well of a 96-well half area plate (150 μl well size). Subsequently the solvent was evaporated by applying a vacuum until the solvent was completely removed.
Method 2 (precipitation): Addition of a certain volume of a stock solution of said peptide containing to each well of a 96-well half area plate followed by the addition of a certain volume of concentrated phosphoric acid to obtain a pH of 4.6 followed by addition of a certain volume of ethanol resulting in a final ethanol concentration of 20% v/v. Subsequently the plate was stored at 4° C. for 1 h and then centrifuged at 4,000 rpm for 20 min. Finally the supernatant was removed. The concentration of the stock solution was chosen in a way that the final amount of peptide after supernatant removal was >0.4 mg per well.
In both cases the stock solution was prepared by adding de-ionized water to a certain amount of powder of said peptide followed by a stepwise addition of small amounts of a concentrated sodium hydroxide solution until said peptide was completely in solution.
To determine solubility of a target peptide at different pH and organic solvent concentrations, two different buffer systems were used in independent experiments to cover the whole range from pH 3.0 to pH 11.0. Buffer system 1 covers pH 3.0-7.5 and buffer system 2 covers pH 7.5-11.0. For each buffer system 96 different solvent compositions were premixed in the following way: • 1. A low pH buffer (adjusted to either pH 3.0 or pH 7.5) and a high pH buffer (adjusted to either pH 7.5 or pH 11.0) were mixed at 8 different ratios to obtain values between pH 3.0 and pH 7.5 or pH 7.5 and pH 11.0, respectively. The total volume after mixing was 300 μl. • 2. 12 different amounts of organic solvent were then added to these buffers to obtain organic solvent (e.g. ethanol) concentrations between 0 and 70% w/w. • 3. Water was then added to obtain a total weight of 1.0 g of solvent in each well.
After preparing the 96 different solvent systems, 100 μl of each system was transferred to the 96-well plate containing the solid form of the target peptide (prepared as described in the section “96-well plate preparation”). The plate was then stored at a given temperature (between 5° C. and 70° C.) for a given time on a rotating shaker set to 400 rpm. At regular time intervals the plate was centrifuged (4,000 rpm for 10 min) and a 10 μl sample was taken from each well. The samples were then analysed by UV absorption at 280 nm for peptide quantification. Peptide concentration results are given as UV absorption at 280 nm of the sample subtracted UV absorption at 280 nm of a well comprising 10 μl water.
The buffers used were as follows: • Buffer system 1 (for the pH range from pH 3.0-7.5)
• Buffer system 2 (for the pH ranae from pH 7.5-11.0)
Solubility of liraglutide was determined using Assay (I) described herein. Liraglutide was prepared using Method 1 (evaporation) or Method 2 (precipitation) as described in subsection “96-well plate preparation”.

Peptide concentration after 180 min (MeCN 50.9% w/w, pH 8.0, 5° C.): 2.2 mg/mL | Peptide concentration after 24 h (MeCN 50.9% w/w, pH 8.0, 5° C.): >4.0 mg/mL | Peptide concentration after 5 min (MeCN 50.9% w/w, pH 8.5, 5° C.): 0.6 mg/mL | Peptide concentration after 180 min (MeCN 50.9% w/w, pH 8.5, 5° C.): 2.6 mg/mL | Peptide concentration after 24 h (MeCN 50.9% w/w, pH 8.5, 5° C.): >4.0 mg/mL | Peptide concentration after 5 min (MeCN 50.9% w/w, pH 9.0, 5° C.): 0.6 mg/mL | Peptide concentration after 180 min (MeCN 50.9% w/w, pH 9.0, 5° C.): 2.0 mg/mL | Peptide concentration after 24 h (MeCN 50.9% w/w, pH 9.0, 5° C.): >4.0 mg/mL | Peptide concentration after 5 min (MeCN 50.9% w/w, pH 9.5, 5° C.): 1.0 mg/mL | Peptide concentration after 180 min (MeCN 50.9% w/w, pH 9.5, 5° C.): 2.4 mg/mL | Peptide concentration after 24 h (MeCN 50.9% w/w, pH 9.5, 5° C.): >4.0 mg/mL | Peptide concentration after 5 min (MeCN 50.9% w/w, pH 10.0, 5° C.): 1.5 mg/mL | Peptide concentration after 180 min (MeCN 50.9% w/w, pH 10.0, 5° C.): 2.6 mg/mL | Peptide concentration after 24 h (MeCN 50.9% w/w, pH 10.0, 5° C.): >4.0 mg/mL | Peptide concentration after 5 min (MeCN 50.9% w/w, pH 10.5, 5° C.): 0.9 mg/mL | Peptide concentration after 180 min (MeCN 50.9% w/w, pH 10.5, 5° C.): 2.1 mg/mL | Peptide concentration after 24 h (MeCN 50.9% w/w, pH 10.5, 5° C.): 3.8 mg/mL | Peptide concentration after 5 min (MeCN 50.9% w/w, pH 11.0, 5° C.): 0.7 mg/mL | Peptide concentration after 180 min (MeCN 50.9% w/w, pH 11.0, 5° C.): 2.2 mg/mL | Peptide concentration after 24 h (MeCN 50.9% w/w, pH 11.0, 5° C.): >4.0 mg/mL | Peptide concentration after 5 min (MeCN 57.3% w/w, pH 8.0, 5° C.): 0.5 mg/mL | Peptide concentration after 180 min (MeCN 57.3% w/w, pH 8.0, 5° C.): 1.6 mg/mL | Peptide concentration after 24 h (MeCN 57.3% w/w, pH 8.0, 5° C.): 3.4 mg/mL | Peptide concentration after 5 min (MeCN 57.3% w/w, pH 8.5, 5° C.): 0.5 mg/mL | Peptide concentration after 180 min (MeCN 57.3% w/w, pH 8.5, 5° C.): 1.6 mg/mL | Peptide concentration after 24 h (MeCN 57.3% w/w, pH 8.5, 5° C.): 3.7 mg/mL | Peptide concentration after 5 min (MeCN 57.3% w/w, pH 9.0, 5° C.): 0.5 mg/mL | Peptide concentration after 180 min (MeCN 57.3% w/w, pH 9.0, 5° C.): 1.9 mg/mL | Peptide concentration after 24 h (MeCN 57.3% w/w, pH 9.0, 5° C.): >4.0 mg/mL | Peptide concentration after 5 min (MeCN 57.3% w/w, pH 9.5, 5° C.): 1.0 mg/mL | Peptide concentration after 180 min (MeCN 57.3% w/w, pH 9.5, 5° C.): 2.0 mg/mL | Peptide concentration after 24 h (MeCN 57.3% w/w, pH 9.5, 5° C.): 4.0 mg/mL | Peptide concentration after 5 min (MeCN 57.3% w/w, pH 10.0, 5° C.): 1.4 mg/mL | Peptide concentration after 180 min (MeCN 57.3% w/w, pH 10.0, 5° C.): 1.6 mg/mL | Peptide concentration after 24 h (MeCN 57.3% w/w, pH 10.0, 5° C.): 1.8 mg/mL | Peptide concentration after 5 min (MeCN 57.3% w/w, pH 10.5, 5° C.): 1.1 mg/mL | Peptide concentration after 180 min (MeCN 57.3% w/w, pH 10.5, 5° C.): 1.1 mg/mL | Peptide concentration after 24 h (MeCN 57.3% w/w, pH 10.5, 5° C.): 1.6 mg/mL | Peptide concentration after 5 min (MeCN 57.3% w/w, pH 11.0, 5° C.): 0.9 mg/mL | Peptide concentration after 180 min (MeCN 57.3% w/w, pH 11.0, 5° C.): 1.4 mg/mL | Peptide concentration after 24 h (MeCN 57.3% w/w, pH 11.0, 5° C.): 2.6 mg/mL | Peptide concentration after 5 min (MeCN 63.6% w/w, pH 8.0, 5° C.): 0.3 mg/mL | Peptide concentration after 180 min (MeCN 63.6% w/w, pH 8.0, 5° C.): 0.6 mg/mL | Peptide concentration after 24 h (MeCN 63.6% w/w, pH 8.0, 5° C.): 2.0 mg/mL | Peptide concentration after 5 min (MeCN 63.6% w/w, pH 8.5, 5° C.): 0.6 mg/mL | Peptide concentration after 180 min (MeCN 63.6% w/w, pH 8.5, 5° C.): 0.8 mg/mL | Peptide concentration after 24 h (MeCN 63.6% w/w, pH 8.5, 5° C.): 2.1 mg/mL | Peptide concentration after 5 min (MeCN 63.6% w/w, pH 9.0, 5° C.): 1.4 mg/mL | Peptide concentration after 180 min (MeCN 63.6% w/w, pH 9.0, 5° C.): 0.9 mg/mL | Peptide concentration after 24 h (MeCN 63.6% w/w, pH 9.0, 5° C.): 2.6 mg/mL | Peptide concentration after 5 min (MeCN 63.6% w/w, pH 9.5, 5° C.): 0.2 mg/mL
SMILES: CCCCCCCCCCCCCCCC(=O)N[C@@H](CCC(=O)NCCCC[C@H](NC(=O)[C@H](C)NC(=O)[C@H](C)NC(=O)[C@H](CCC(N)=O)NC(=O)CNC(=O)[C@H](CCC(=O)O)NC(=O)[C@H](CC(C)C)NC(=O)[C@H](Cc1ccc(O)cc1)NC(=O)[C@H](CO)NC(=O)[C@H](CO)NC(=O)[C@@H](NC(=O)[C@H](CC(=O)O)NC(=O)[C@H](CO)NC(=O)[C@@H](NC(=O)[C@H](Cc1ccccc1)NC(=O)[C@@H](NC(=O)CNC(=O)[C@H](CCC(=O)O)NC(=O)[C@H](C)NC(=O)[C@@H](N)Cc1cnc[nH]1)[C@@H](C)O)[C@@H](C)O)C(C)C)C(=O)N[C@@H](CCC(=O)O)C(=O)N[C@@H](Cc1ccccc1)C(=O)N[C@H](C(=O)N[C@@H](C)C(=O)N[C@@H](Cc1c[nH]c2ccccc12)C(=O)N[C@@H](CC(C)C)C(=O)N[C@H](C(=O)N[C@@H](CCCNC(=N)N)C(=O)NCC(=O)N[C@@H](CCCNC(=N)N)C(=O)NCC(=O)O)C(C)C)[C@@H](C)CC)C(=O)O [liraglutide, Arg34,Lys26-(N-epsilon-(gamma-L-glutamyl(N-alfa-hexadecanoyl)))-GLP-1(7-37)]
